Laboratory results reported in ChEMBL document CHEMBL6153030, “Design, synthesis, and biological evaluation of novel pleuromutilin derivatives with methicillin-resistant Staphylococcus aureus -targeting phenol linker groups” (Eur J Med Chem, 2025).
In brackets after ≈: the same amount, converted by molar mass. Activity calls are given as the source filed them. No cut-off for these calls is given here.

Assays:
Escherichia coli = experiment: Antibacterial activity against Escherichia coli ATCC 25922 assessed as inhibition of bacterial growth incubated for 96 hrs by broth microdilution method; type: functional
[1] = Toxicity against rabbit red blood cells assessed as hemolysis rate at 100 ug/ml by absorbance based analysis; type: cell-based, Oryctolagus cuniculus, Erythrocyte; conditions: at 100 µg/mL, read-out: Activity
Staphylococcus aureus [2] = experiment: In vivo antibacterial activity against methicillin-resistant Staphylococcus aureus ATCC43300 infected in Kunming mouse assessed as log reduction of bacterial load in lungs at 40 mg/kg, ip administered at 1 hr post-infection and measured within 48 hrs; type: functional
[3] = molecular target: T1, 70S ribosome (Staphylococcus aureus) (UniProt Q2FW31+P0A0H0+Q2FW30+Q2FW19+Q2FYU5+Q2G2Q1+Q2FZ45+Q2FW15+Q2G111+Q2FW10+Q2FXY6+Q2FXZ7+Q2FZ25+Q2FW12+Q2FXK6+Q2FW23+Q2G113+P48940+Q2FW20+Q2FW39+Q2FYF9+Q2G0N9+P0A0F4+Q2FW38+Q2FW16+P0A0F8+Q2FW13+Q2FW33+Q2FW22+Q2FZ42+Q2G0P0+Q2FXQ1+Q2FXS8+Q2FW11+Q2FW08+Q2FW17+Q2FXT0+Q2FZ60+Q2FW14+P60430+P0A0G2+Q2FWD8+Q2FZF1+Q2FYU6+Q2FY22+Q2FUQ0+Q2FXQ0+Q2FW29+Q2FW06+Q2FW07+Q2FW18+Q2FW21+P48860+Q2G2T3); experiment: Inhibition of ribosomal peptidyl transferase centre in methicillin-resistant Staphylococcus aureus ATCC43300 assessed as bacterial cell rupture at 4XMIC by scanning electron microscopy; type: functional
Streptococcus pneumoniae = experiment: Antibacterial activity against Streptococcus pneumoniae ATCC 49619 assessed as inhibition of bacterial growth incubated for 96 hrs by broth microdilution method; type: functional
Staphylococcus aureus [4] = experiment: In vivo antibacterial activity against methicillin-resistant Staphylococcus aureus ATCC43300 infected in Kunming mouse assessed as decrease in lung lesions by measuring reduced congestion, hemorrhage and inflammatory cell infiltration at 40 mg/kg, ip administered at 1 hr post-infection; type: functional, organism-based
[5] = Toxicity against Zebrafish assessed as reduction of survival of embryos measured after 96 hrs; design: species or system Danio rerio; conditions: in vivo
Staphylococcus aureus [6] = experiment: In vivo antibacterial activity against methicillin-resistant Staphylococcus aureus ATCC43300 infected in Kunming mouse assessed as decrease in bacterial load in lungs at 20 to 40 mg/kg, ip administered at 1 hr post-infection; type: functional, organism-based; conditions: dose 20-40 mg/kg
Staphylococcus aureus [7] = experiment: Bactericidal activity against methicillin-resistant Staphylococcus aureus ATCC 43300 assessed as bacterial killing at 6XMIC incubated for 96 hrs in broth followed by culturing on agar plate for 12 hrs by time-kill kinetics analysis; type: functional; conditions: time 108 hrs
Staphylococcus aureus [8] = experiment: In vivo antibacterial activity against methicillin-resistant Staphylococcus aureus ATCC43300 infected in Kunming mouse assessed as increase in animal survival rate administered ip at 1 hr post-infection; type: functional; conditions: ATCC43300, 1 h
Staphylococcus aureus [9] = experiment: Antibacterial activity against methicillin-resistant Staphylococcus aureus ATCC43300 assessed as inhibition of bacterial growth incubated for 96 hrs by broth microdilution method; type: functional
[10] = tested on: Staphylococcus epidermidis; experiment: Antibacterial activity against methicillin-resistant Staphylococcus epidermidis ATCC 51625 assessed as inhibition of bacterial growth incubated for 96 hrs by broth microdilution method; type: functional
HepG2 = experiment: Cytotoxicity against human HepG2 cells assessed as reduction in cell survival at 250 ug/ml incubated for 6 hrs by CCK8 assay; type: toxicity, cell-based; conditions: hepg2, 6 h, dose 250 µg/ml
Staphylococcus aureus [11] = experiment: Bactericidal activity against methicillin-resistant Staphylococcus aureus ATCC43300 assessed as bacterial killing at 3XMIC incubated for 96 hrs in broth followed by culturing on agar plate for 4 hrs by time-kill kinetics analysis; type: functional; conditions: time 100 hrs
Staphylococcus aureus [12] = experiment: Antibacterial activity against Staphylococcus aureus ATCC 29213 assessed as inhibition of bacterial growth incubated for 96 hrs by broth microdilution method; type: functional
[13] = molecular target: T1, 70S ribosome (Staphylococcus aureus); experiment: Inhibition of ribosomal peptidyl transferase centre in methicillin-resistant Staphylococcus aureus ATCC43300 assessed as inhibition of bacterial cell division at 4XMIC by scanning electron microscopy; type: functional
[14] = Toxicity against zebrafish embryo assessed as teratogenic effect at 128 ug/ml measured after 96 hrs by microscopic analysis; design: species or system Danio rerio; conditions: in vivo, dose 128 µg/ml
HEK293 = experiment: Cytotoxicity against HEK293 cells assessed as reduction in cell survival upto 120 ug/ml incubated for 6 hrs by CCK8 assay; type: toxicity, cell-based; conditions: human, hek293, 6 h, dose < 120 µg/ml
Staphylococcus aureus [15] = experiment: Antibacterial activity against methicillin-resistant Staphylococcus aureus ATCC43300 assessed as inhibition of bacterial growth measured after 17 to 18 days; type: functional; conditions: time 17-18 day
Staphylococcus aureus [16] = experiment: Bactericidal activity against methicillin-resistant Staphylococcus aureus ATCC 43300 assessed as log reduction of bacterial colonies at 3XMIC incubated for 96 hrs in broth followed by culturing on agar plate for 4 hrs by time-kill kinetics analysis; type: functional; conditions: time 100 hrs

SMILES: C=C[C@]1(C)C[C@@H](OC(=O)CSc2ccccc2OCC(=O)N2CCS(=O)(=O)CC2)[C@]2(C)[C@H](C)CC[C@]3(CCC(=O)[C@H]32)[C@@H](C)[C@@H]1O
- MIC (Escherichia coli): > 64 µg/mL
- hemolysis at 100 ug/ml [1]: < 15%
- Activity (Staphylococcus aureus [2]): 3 log10CFU/ml
- inhibition [3]: Active
- MIC (Streptococcus pneumoniae): 0.125 µg/mL (≈ 0.189 µM)
- Activity (Staphylococcus aureus [4]): Active
- LC50 at 96 h [5]: 165 µg/mL (≈ 249 µM)
- Activity (Staphylococcus aureus [6]): Dose-dependent-effect
- Activity (Staphylococcus aureus [7]): 99.99%
- ED50 (Staphylococcus aureus [8]): 6.48 mg/kg
- MIC (Staphylococcus aureus [9]): < 0.031 µg/mL
- MIC [10]: < 0.031 µg/mL
- Activity (HepG2): Toxic
- Activity (Staphylococcus aureus [11]): 99.9%
- MIC (Staphylococcus aureus [12]): < 0.031 µg/mL
- inhibition [13]: Active
- Activity [14]: Non-toxic
- Activity (HEK293): Toxic
- MIC (Staphylococcus aureus [15]): 8 µg/mL (≈ 12.1 µM)
- Activity (Staphylococcus aureus [16]): -3.154 log10CFU/ml
